Measurements taken from paper PMC12396409, “Screening and hit evaluation of a microbial metabolite library against the pathogenic Plasmodium falciparum and Toxoplasma gondii parasites” (International Journal for Parasitology: Drugs and Drug …, 2025).
Where two headings read alike, the source gives them in different places.

How the values were obtained:
[1] = tested on: P. falciparum 3D7 parasites; experiment: P. falciparum growth inhibition assay, 1-cycle (72 h treatment), SYBR DNA staining (library screen at 2 μg/mL and dose-response); format: cell-based, Plasmodium falciparum; settings: for activity at 2 µg/mL: Plasmodium falciparum, 3D7, 72 h
[2] = tested on: P. falciparum 3D7 parasites; experiment: P. falciparum growth inhibition assay, 2-cycle (120 h treatment), delayed-death screen and dose-response; format: cell-based, Plasmodium falciparum; settings: for activity at 2 µg/mL: Plasmodium falciparum, 3D7, 120 h
[3] = tested on: T. gondii RH strain (RH-Tub-eYFP) tachyzoites; experiment: microbe, parasite or virus in culture; format: cell-based, Toxoplasma gondii; settings: 72 h; for percent parasite growth at 2 µg/mL: Toxoplasma gondii
[4] = library screen at 2 μg/mL, 72 h, % growth, replicate 1
[5] = library screen at 2 μg/mL, 72 h, % growth, replicate 2
[6] = library screen at 2 μg/mL, 120 h, % growth, replicate 1
[7] = library screen at 2 μg/mL, 120 h, % growth, replicate 2
[8] = library screen at 2 μg/mL, % growth, replicate 1
[9] = library screen at 2 μg/mL, % growth, replicate 2
[10] = T. gondii, 2 μg/mL, values are growth (% of control)

Dihydrocyclosporin A
Pf_72h_%Growth_Rep1 [1, 4]: 1.22%
Pf_72h_%Growth_Rep2 [1, 5]: -3.30%
Pf_120h_%Growth_Rep1 [2, 6]: 3.25%
Pf_120h_%Growth_Rep2 [2, 7]: 2.98%
Tg_72h_%Growth_Rep1 [3, 8]: 8.15%
Tg_72h_%Growth_Rep2 [3, 9]: 8.03%

O=C(O)c1c(=O)cccc2ssc12 [Tropodithietic acid]
Pf_72h_%Growth_Rep1 ([1]; P. falciparum, 72 h, screen at 2 μg/mL, replicate 1): 3.58%
Pf_72h_%Growth_Rep2 ([1]; P. falciparum, 72 h, screen at 2 μg/mL, replicate 2): -3.15%
Pf_120h_%Growth_Rep1 ([2]; P. falciparum, 120 h, screen at 2 μg/mL, replicate 1): 21.29%
Pf_120h_%Growth_Rep2 ([2]; P. falciparum, 120 h, screen at 2 μg/mL, replicate 2): 16.13%
Tg_72h_%Growth_Rep1 ([3]; T. gondii, screen at 2 μg/mL, replicate 1): 1.16%
Tg_72h_%Growth_Rep2 ([3]; T. gondii, screen at 2 μg/mL, replicate 2): 1.78%

CC1=CCC2CC(CC3(CCC(C)C(C)O3)O2)OC(=O)C2C=C(C)C(=NO)C3OCC(=CC=CC(C)C1)C23O (stereo not drawn) [BIA-M1531]
Pf_72h_%Growth_Rep1 ([1]; P. falciparum 3D7, 72 h, parasite screen at 2 μg/mL, % growth, replicate 1): 53.63%
Pf_72h_%Growth_Rep2 ([1]; P. falciparum 3D7, 72 h, parasite screen at 2 μg/mL, % growth, replicate 2): 28.47%
Pf_120h_%Growth_Rep1 ([2]; P. falciparum 3D7, 120 h, parasite screen at 2 μg/mL, % growth, replicate 1): 36.91%
Pf_120h_%Growth_Rep2 ([2]; P. falciparum 3D7, 120 h, parasite screen at 2 μg/mL, % growth, replicate 2): 51.60%
Tg_72h_%Growth_Rep1 ([3]; T. gondii, parasite screen at 2 μg/mL, % growth, replicate 1): 75.89%
Tg_72h_%Growth_Rep2 ([3]; T. gondii, parasite screen at 2 μg/mL, % growth, replicate 2): 79.64%

Cc1c2c(c(O)c3c(O)cccc13)C(=O)O[C@@H]2[C@@H]1[C@H](O)C(=O)C(C(N)=O)=C(O)[C@H]1N(C)C [Apooxytetracycline, alpha-]
Pf_72h_%Growth_Rep1 [1, 4]: 86.78%
Pf_72h_%Growth_Rep2 [1, 5]: 89.73%
Pf_120h_%Growth_Rep1 [2, 6]: 91.28%
Pf_120h_%Growth_Rep2 [2, 7]: 90.91%
Tg_72h_%Growth_Rep1 [3, 8]: 81.07%
Tg_72h_%Growth_Rep2 [3, 9]: 111.56%

CCCCCCCCCCCCCCCC(=O)C1=C(O)C(CO)OC1=O (stereo not drawn) [TAN 1364B]
Pf_72h_%Growth_Rep1 ([1]; P. falciparum, 72 h, parasite screen 2 μg/mL, % growth, replicate 1): 72.25%
Pf_72h_%Growth_Rep2 ([1]; P. falciparum, 72 h, parasite screen 2 μg/mL, % growth, replicate 2): 85.83%
Pf_120h_%Growth_Rep1 ([2]; P. falciparum, 120 h, parasite screen 2 μg/mL, % growth, replicate 1): 149.02%
Pf_120h_%Growth_Rep2 ([2]; P. falciparum, 120 h, parasite screen 2 μg/mL, % growth, replicate 2): 76.93%
Tg_72h_%Growth_Rep1 ([3]; T. gondii, parasite screen 2 μg/mL, % growth, replicate 1): 101.38%
Tg_72h_%Growth_Rep2 ([3]; T. gondii, parasite screen 2 μg/mL, % growth, replicate 2): 92.62%

CC[C@H](C)C(=O)O[C@H]1C[C@@H](C)C=C2C=C[C@H](C)[C@H](CC[C@@H]3C[C@@H](O)CC(=O)O3)[C@H]21 [BIA-L1264]
Pf_72h_%Growth_Rep1 ([1]; P. falciparum 3D7, 72 h, library screen at 2 μg/mL, % growth, replicate 1): 70.29%
Pf_72h_%Growth_Rep2 ([1]; P. falciparum 3D7, 72 h, library screen at 2 μg/mL, % growth, replicate 2): 102.36%
Pf_120h_%Growth_Rep2 [2]: 93.18%
Pf_120h_%Growth_Rep1 ([2]; P. falciparum 3D7, 120 h, library screen at 2 μg/mL, % growth, replicate 1): 89.66%
Tg_72h_%Growth_Rep1 ([3]; T. gondii RH, library screen at 2 μg/mL, % growth, replicate 1): 3.18%
Tg_72h_%Growth_Rep2 ([3]; T. gondii RH, library screen at 2 μg/mL, % growth, replicate 2): 2.54%

CCCC[C@H]1C(=O)O[C@H](C)[C@H](NC(=O)c2cccc(NC=O)c2O)C(=O)O[C@@H](C)[C@@H]1OC(=O)CC(C)C [Antimycin A3]
activity at 2 µg/mL ([1]; library screen at 2 μg/mL, 72 h, % growth, replicate 1, read-out: Pf_72h_%Growth_Rep1): 47.1%
activity at 2 µg/mL ([1]; library screen at 2 μg/mL, 72 h, % growth, replicate 2, read-out: Pf_72h_%Growth_Rep2): 38.8%
activity at 2 µg/mL ([2]; library screen at 2 μg/mL, 120 h, % growth, replicate 1, read-out: Pf_120h_%Growth_Rep1): 45.4%
activity at 2 µg/mL ([2]; library screen at 2 μg/mL, 120 h, % growth, replicate 2, read-out: Pf_120h_%Growth_Rep2): 32%
Mean ([3]; T. gondii, 2 μg/mL, mean of both replicates, growth (% of control)): 21.56
Replicate 1 [3, 10]: 30.27
Replicate 2 [3, 10]: 12.84
percent parasite growth at 2 µg/mL ([3]; library screen at 2 μg/mL, % growth, replicate 1, read-out: Tg_72h_%Growth_Rep1): 30.3%
percent parasite growth at 2 µg/mL ([3]; library screen at 2 μg/mL, % growth, replicate 2, read-out: Tg_72h_%Growth_Rep2): 12.8%

COc1cc(C)c2c(c1)O[C@]1(C)Cc3cc4c(c(O)c3[C@H]2O1)C(=O)c1c(O)c(Cl)c(O)c(Cl)c1C4(C)C [Bischloroanthrabenzoxocinone]
Pf_72h_%Growth_Rep1 [1, 4]: 16.72%
Pf_72h_%Growth_Rep2 [1, 5]: 45.58%
Pf_120h_%Growth_Rep1 [2, 6]: 23.08%
Pf_120h_%Growth_Rep2 [2, 7]: 23.09%
Tg_72h_%Growth_Rep1 [3, 8]: 50.70%
Tg_72h_%Growth_Rep2 [3, 9]: 75.56%

COc1c(O)c2c(=O)cc3c4c5c(cc(=O)c6c(O)c(OC)c(C[C@H](C)OC(C)=O)c(c(c1C[C@H](C)OC(C)=O)c24)c65)OCO3 [Diacetylcercosporin]
Pf_72h_%Growth_Rep1 [1, 4]: 2.60%
Pf_72h_%Growth_Rep2 [1, 5]: 15.99%
Pf_120h_%Growth_Rep1 [2, 6]: -5.54%
Pf_120h_%Growth_Rep2 [2, 7]: 6.35%
Tg_72h_%Growth_Rep1 [3, 8]: 4.49%
Tg_72h_%Growth_Rep2 [3, 9]: 14.87%
